What was measured:
[1] = compound: T1, CCOc1cc2ncc(C#N)c(Nc3ccc(OCc4ccccn4)c(Cl)c3)c2cc1NC(=O)/C=C/CN(C)C [Neratinib/HKI272]; assay: GR value, 72 h; higher = faster growth (1 = untreated, <0 = killing);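 note: breast cancer and non-malignant breast epithelial lines, nine half-log doses, viable cells counted by Hoechst and LIVE/DEAD dye imaging versus time-zero plates and DMSO controls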
[2] = compound: T2, CN1CC[C@H](c2c(O)cc(O)c3c(=O)cc(-c4ccccc4Cl)oc23)[C@H](O)C1 [Flavopiridol]; assay: as above
[3] = compound: CN(C)C/C=C/C(=O)Nc1ccc(C(=O)N2CCC[C@@H](Nc3ncc(Cl)c(-c4c[nH]c5ccccc45)n3)C2)cc1 [THZ531]; assay: increase in dead-cell fraction, 72 h; higher = more death;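 note: breast cancer cell lines in 384-well plates, stained with Hoechst plus LIVE/DEAD far red dye and imaged, cells above an LDR intensity threshold counted dead, Hoechst-negative corpses included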
[4] = compound: CC(=O)c1c(C)c2cnc(Nc3ccc(N4CCN(CCOCCOCCOCCNC(=O)COc5cccc6c5C(=O)N(C5CCC(=O)NC5=O)C6=O)CC4)cn3)nc2n(C2CCCC2)c1=O [BSJ-03-123]; assay: as above
[5] = compound: CC(=O)c1c(C)c2cnc(Nc3ccc(N4CCNCC4)cn3)nc2n(C2CCCC2)c1=O; assay: as above
[6] = compound: CCc1cnn2c(NCc3ccc[n+]([O-])c3)cc(N3CCCC[C@H]3CCO)nc12; assay: as above
[7] = compound: T1, Neratinib/HKI272; assay: as above
[8] = compound: C=CC(=O)Nc1ccc(C(=O)Nc2[nH]nc3c2CN(C(=O)N[C@H](CN(C)C)c2ccccc2)C3(C)C)cc1 [YKL-5-124]; assay: as above
[9] = compound: CN(C)C/C=C/C(=O)Nc1ccc(C(=O)Nc2cccc(Nc3ncc(Cl)c(-c4c[nH]c5ccccc45)n3)c2)cc1 [THZ1]; assay: as above
[10] = compound: CN(C)C(=O)c1cc2cnc(Nc3ccc(N4CCNCC4)cn3)nc2n1C1CCCC1 [LEE011/Ribociclib]; assay: as above
[11] = compound: T2, Flavopiridol; assay: as above
[12] = compound: CCN1CCN(Cc2ccc(Nc3ncc(F)c(-c4cc(F)c5nc(C)n(C(C)C)c5c4)n3)nc2)CC1; assay: as above

Cell Line: MDAMB361
- GR value ([1]; 0.0003162 µM): 0.976 GR
- GR value ([1]; 0.001 µM): 0.848 GR
- GR value ([1]; 0.003162 µM): 0.824 GR
- GR value ([1]; 0.01 µM): 0.783 GR
- GR value ([1]; 0.03162 µM): 0.639 GR
- GR value ([1]; 0.1 µM): 0.514 GR
- GR value ([1]; 0.3162 µM): 0.486 GR
- GR value ([1]; 1 µM): 0.241 GR
- GR value ([1]; 3.162 µM): -0.516 GR
- GR value ([2]; 0.0001 µM): 1.05 GR
- GR value ([2]; 0.0003162 µM): 0.905 GR
- GR value ([2]; 0.001 µM): 0.752 GR
- GR value ([2]; 0.003162 µM): 0.73 GR
- GR value ([2]; 0.01 µM): 0.942 GR
- GR value ([2]; 0.03162 µM): 0.753 GR
- GR value ([2]; 0.1 µM): 0.562 GR
- GR value ([2]; 0.3162 µM): -0.0494 GR
- GR value ([2]; 1 µM): -0.402 GR
- increase in dead-cell fraction ([3]; 0.0001 µM): -0.004
- increase in dead-cell fraction ([3]; 0.0003162 µM): -0.0021
- increase in dead-cell fraction ([3]; 0.001 µM): 0.0045
- increase in dead-cell fraction ([3]; 0.003162 µM): -0.0062
- increase in dead-cell fraction ([3]; 0.01 µM): -0.0039
- increase in dead-cell fraction ([3]; 0.03162 µM): 0.0484
- increase in dead-cell fraction ([3]; 0.1 µM): 0.454
- increase in dead-cell fraction ([3]; 0.3162 µM): 0.219
- increase in dead-cell fraction ([3]; 1 µM): 0.106
- increase in dead-cell fraction ([4]; 0.001 µM): 0.0068
- increase in dead-cell fraction ([4]; 0.003162 µM): 0.0047
- increase in dead-cell fraction ([4]; 0.01 µM): 0.0008
- increase in dead-cell fraction ([4]; 0.03162 µM): 0.006
- increase in dead-cell fraction ([4]; 0.1 µM): 0.0093
- increase in dead-cell fraction ([4]; 0.3162 µM): 0.0131
- increase in dead-cell fraction ([4]; 1 µM): 0.0189
- increase in dead-cell fraction ([4]; 3.162 µM): 0.0054
- increase in dead-cell fraction ([4]; 10 µM): 0.0713
- increase in dead-cell fraction ([5]; 0.0003162 µM): 0.0032
- increase in dead-cell fraction ([5]; 0.001 µM): -0.0062
- increase in dead-cell fraction ([5]; 0.003162 µM): -0.002
- increase in dead-cell fraction ([5]; 0.01 µM): 0.0022
- increase in dead-cell fraction ([5]; 0.03162 µM): 0.0148
- increase in dead-cell fraction ([5]; 0.1 µM): 0.0157
- increase in dead-cell fraction ([5]; 0.3162 µM): 0.0051
- increase in dead-cell fraction ([5]; 1 µM): 0.0076
- increase in dead-cell fraction ([5]; 3.162 µM): 0.0191
- increase in dead-cell fraction ([6]; 0.0001 µM): 0.0019
- increase in dead-cell fraction ([6]; 0.0003162 µM): -0.0027
- increase in dead-cell fraction ([6]; 0.001 µM): -0.0041
- increase in dead-cell fraction ([6]; 0.003162 µM): 0.0003
- increase in dead-cell fraction ([6]; 0.01 µM): 0.0259
- increase in dead-cell fraction ([6]; 0.03162 µM): 0.303
- increase in dead-cell fraction ([6]; 0.1 µM): 0.148
- increase in dead-cell fraction ([6]; 0.3162 µM): 0.14
- increase in dead-cell fraction ([6]; 1 µM): 0.153
- increase in dead-cell fraction ([7]; 0.0003162 µM): 0.0068
- increase in dead-cell fraction ([7]; 0.001 µM): 0.0063
- increase in dead-cell fraction ([7]; 0.003162 µM): 0.028
- increase in dead-cell fraction ([7]; 0.01 µM): 0.0198
- increase in dead-cell fraction ([7]; 0.03162 µM): 0.0227
- increase in dead-cell fraction ([7]; 0.1 µM): 0.0339
- increase in dead-cell fraction ([7]; 0.3162 µM): 0.0406
- increase in dead-cell fraction ([7]; 1 µM): 0.105
- increase in dead-cell fraction ([7]; 3.162 µM): 0.435
- increase in dead-cell fraction ([8]; 0.001 µM): 0.0281
- increase in dead-cell fraction ([8]; 0.003162 µM): 0.0171
- increase in dead-cell fraction ([8]; 0.01 µM): 0.0264
- increase in dead-cell fraction ([8]; 0.03162 µM): 0.0267
- increase in dead-cell fraction ([8]; 0.1 µM): 0.0421
- increase in dead-cell fraction ([8]; 0.3162 µM): 0.0191
- increase in dead-cell fraction ([8]; 1 µM): 0.0241
- increase in dead-cell fraction ([8]; 3.162 µM): 0.0411
- increase in dead-cell fraction ([8]; 10 µM): 0.371
- increase in dead-cell fraction ([9]; 0.0001 µM): -0.0046
- increase in dead-cell fraction ([9]; 0.0003162 µM): -0.0085
- increase in dead-cell fraction ([9]; 0.001 µM): -0.0074
- increase in dead-cell fraction ([9]; 0.003162 µM): 0.0099
- increase in dead-cell fraction ([9]; 0.01 µM): 0.016
- increase in dead-cell fraction ([9]; 0.03162 µM): 0.0299
- increase in dead-cell fraction ([9]; 0.1 µM): 0.166
- increase in dead-cell fraction ([9]; 0.3162 µM): 0.246
- increase in dead-cell fraction ([9]; 1 µM): 0.186
- increase in dead-cell fraction ([10]; 0.001 µM): 0.0114
- increase in dead-cell fraction ([10]; 0.003162 µM): 0.0106
- increase in dead-cell fraction ([10]; 0.01 µM): 0.009
- increase in dead-cell fraction ([10]; 0.03162 µM): 0.0147
- increase in dead-cell fraction ([10]; 0.1 µM): 0.0129
- increase in dead-cell fraction ([10]; 0.3162 µM): 0.0218
- increase in dead-cell fraction ([10]; 1 µM): 0.0159
- increase in dead-cell fraction ([10]; 3.162 µM): 0.0012
- increase in dead-cell fraction ([10]; 10 µM): 0.0018
- increase in dead-cell fraction ([11]; 0.0001 µM): 0.0029
- increase in dead-cell fraction ([11]; 0.0003162 µM): -0.0069
- increase in dead-cell fraction ([11]; 0.001 µM): -0.0039
- increase in dead-cell fraction ([11]; 0.003162 µM): 0.0101
- increase in dead-cell fraction ([11]; 0.01 µM): 0.0075
- increase in dead-cell fraction ([11]; 0.03162 µM): 0.0039
- increase in dead-cell fraction ([11]; 0.1 µM): -0.0034
- increase in dead-cell fraction ([11]; 0.3162 µM): 0.0273
- increase in dead-cell fraction ([11]; 1 µM): 0.0899
- increase in dead-cell fraction ([12]; 0.001 µM): -0.0026
- increase in dead-cell fraction ([12]; 0.003162 µM): -0.0006
- increase in dead-cell fraction ([12]; 0.01 µM): 0.0107
- increase in dead-cell fraction ([12]; 0.03162 µM): 0.0026
- increase in dead-cell fraction ([12]; 0.1 µM): 0.0066
- increase in dead-cell fraction ([12]; 0.3162 µM): 0.0052
- increase in dead-cell fraction ([12]; 1 µM): 0.0161
- increase in dead-cell fraction ([12]; 3.162 µM): 0.0884
- increase in dead-cell fraction ([12]; 10 µM): 0.172
